Tests used:
[1] = test system: P1.HTR cells transfected with HLA-Cw*1601; test: chromium release assay: lysis by CTL clone 82/82 of P1.HTR transfected with HLA-Cw*1601 and incubated with peptide; format: cell-based, mouse; conditions: P1.HTR transfected with HLA-Cw*1601, 1 μM peptide, lysis tested after 4 hours
Experimental: (§1) The lysis assay employed was a chromium release assay following Herin et al., Int. J. Cancer, 39:390-396 (1987), which is incorporated herein by reference. The assay, however, is described herein. The target melanoma cells were grown in vitro, and then resuspended at 4×10^7 cells/ml in DMEM, supplemented with DMEM with 10 mM HEPES and 50% FCS, and incubated for 60 minutes at 37° C. with 200 μCi/ml of Na(^51Cr)O4. Labelled cells were washed three times with DMEM, supplemented with 10 mM HEPES. These were then resuspended in DMEM supplemented with 10 mM HEPES and 10% FCS, after which 100 μl aliquots containing 10^3 cells, were distributed into 96 well microplates. Samples of PBLs were added in 100 μl of the same medium, and assays were carried out in duplicate. Plates were centrifuged for 4 minutes at 100 g, and incubated for four hours at 37° C. in a 8% CO2 atmosphere.
(§2) Plates were centrifuged again, and 100 μl aliquots of supernatant were collected and counted. Percentage of ^51Cr release was calculated as follows: [formula]
where ER is observed, experimental ^51Cr release, SR is spontaneous release measured by incubating 10^3 labeled cells in 200 μl of medium alone, and MR is maximum release, obtained by adding 100 μl 0.3% Triton X-100 to target cells. […]
Several synthetic peptides were prepared on this basis. […] Chromium release was measured after 4 hours at 37° C. […]

[2] = test system: lymphoblastoid cell line MZ2-EBV; test: peptide sensitization chromium release assay: lysis by CTL 82/82 of peptide-incubated target cells; format: cell-based, human; conditions: chromium release after 4 hours; for sensitization of target cells to lysis by CTL 82/82: lymphoblastoid cell line from patient MZ2, various peptide concentrations
Experimental: as §1, §2
where ER is observed, experimental ^51Cr release, SR is spontaneous release measured by incubating 10^3 labeled cells in 200 μl of medium alone, and MR is maximum release, obtained by adding 100 μl 0.3% Triton X-100 to target cells.
Several synthetic peptides were prepared on this basis. Peptides were synthesized on solid phase using F-moc for transient NH2-terminal protection as described by Atherton et al., J. Chem. Soc. Lond. Perkin Trans., 1:538-546 (1981) and characterized by mass spectrometry. All peptides were >90% pure as indicated by analytical HPLC. Lyophilized peptides were dissolved at 20 mg/ml in DMSO, diluted at 2 mg/ml in 10 mM acetic acid and stored at […]. Peptides were tested in a CTL stimulation assay with COS-7 cells transfected by HLA-Cw*1601 and incubated with the peptides. They were also tested by chromium release assay as previously described (Boon et al., J. Exp. Med., 152:1184-1193 (1980)). In this peptide sensitization assay, target cells were ^51Cr-labelled for one hour at 37° C. and washed extensively. 1000 target cells were then incubated in 96-well microplates in the presence of various concentrations of peptide for 30 minutes at 37° C. before CTL 82/82 cells were added. Chromium release was measured after 4 hours at 37° C.
The final concentration of peptides during the incubation of the target cells with the CTL is indicated. The arrow indicates the percentage of lysis of MZ2-MEL.43 cells. […] P1.HTR cells were transfected with HLA-Cw*1601 and were incubated with nonapeptide AARAVFLAL (SEQ ID NO: 3). […] Lysis of chromium-labelled cells was tested after 4 hours.

[3] = test system: cells transfected with HLA-Cw*1601; test: CTL stimulation assay (TNF production) with HLA-Cw*1601-transfected cells incubated with peptide; format: cell-based; conditions: six CTL clones from patient MZ2; cells transfected with HLA-Cw*1601 and incubated with nonapeptide
Experimental: Cotransfectants were tested after 24 or 48 hours for their ability to stimulate the production of tumor necrosis factor (TNF) by CTLs (Traversari et al., Immunogenetics, 235:145-152 (1992)). 1500 CTLs were added in 100 μl of Iscove's medium (Gibco BRL) containing 10% human serum and 20 U/ml r-hu-IL-2 to microwells containing target cells. After 24 hours, the supernatant was collected and its TNF content was determined by testing its cytotoxic effect on cells of WEHI-164 clone 13 (Espevik et al., J. Immunol. Methods, 95:99-105 (1986)) in an MTT colorimetric assay (Hansen et al., J. Cancer, 39:390-396 (1989) and Traversari et al., supra).
Several synthetic peptides were prepared on this basis. Peptides were synthesized on solid phase using F-moc for transient NH2-terminal protection as described by Atherton et al., J. Chem. Soc. Lond. […] Chromium release was measured after 4 hours at 37° C.
From two MLTCs set up with different blood samples of patient MZ2, six CTL clones that recognized the BAGE/HLA-Cw*1601 antigen were derived. […] Vα and Vβ expression were determined as follows: Total RNA from the different CTL clones was prepared by using RNAzol*B (Cinna/Biotecx, Friendswood, Tex.). […] Specificity of TCR Vα and Vβ PCR amplification was assessed by Southern blotting and hybridization with ^32P-labelled Cα or Cβ oligonucleotides internal to the ones used for amplification.

With “AARAVFLAL [Ala Ala Arg Ala Val Phe Leu Ala Leu, BAGE-encoded nonapeptide (amino acids 2-10) recognized in association with HLA-Cw*1601 by CTL 82/82]” the “lysis by CTL 82/82 of peptide-incubated transfected cells” value [1] was “lysed by CTL 82/82”, the EC50 ([2]; MZ2-EBV targets incubated 30 minutes with peptide, CTL 82/82 added, read-out: peptide concentration giving half-maximal lysis) was 30 nM and the “sensitization of target cells to lysis by CTL 82/82” value (shortened to “sensitization of target cells”) [2] was “Sensitization of a lymphoblastoid cell line from patient MZ2 to lysis by CTL 82/82 was observed”. The “response of CTL clones recognizing the BAGE/HLA-Cw*1601 antigen” value [3] was “responded”.

With ARAVFLALF the “sensitization of target cells” value [2] was “not able to sensitize target cells to lysis”.

In the case of MAARAVFLA, the “sensitization of target cells” value [2] is reported as “not able to sensitize target cells to lysis”.
